The conditions of series [1]: EP 2415 774; cited from earlier work.
Series [2] in a line: Solubility of prasugrel base and prasugrel HCl at different pH values. It is filed as physicochemical. The source says:
According to the examples of WO 2008/073759 prasugrel containing pharmaceutical compositions are stabilized by storing the tablets in air-and waterproof packaging. According to WO 2006/135605 the decomposition of prasugrel containing compositions can be reduced in air- and moisture-proof blister filled with inert gas. […] This fact is substantiated by the following Table. It can be seen from the above Table that the solubility of the hydrochloric acid salt of prasugrel is much higher than that of the prasugrel base even in the pH range between 4.5 and 6.8

The subject of a further series is platelet aggregation. Conditions: administered in the same dose, EP 1 298 132 B1; cited from earlier work.
Series [3] is described as follows: Storage stability of prasugrel base, related substances by HPLC. Format: physicochemical. The source says:
Contrary to the teaching of WO 2011/098536a stable product of appropriate bioavailability is obtained.

[4] abbreviates: 25 ± 2° C. 60 ± 5% RH, 2 months.
[5] abbreviates: 25 ± 2° C. 60 ± 5% RH, 3 months.
Setting [6] is: 25 ± 2° C. 60 ± 5% RH, 6 months.
Where [7] appears, read: 40 ± 2° C. 75 ± 5% RH, 2 months.
[8] abbreviates: 40 ± 2° C. 75 ± 5% RH, 3 months.
The mark [9] stands for this setting: 40 ± 2° C. 75 ± 5% RH, 6 months.

Counter-ions that a name gives are not always drawn.

On to `CC(=O)Oc1cc2c(s1)CCN(C(C(=O)C1CC1)c1ccccc1F)C2` (centres unmarked) [hydrogen bromide salt], for which the “Solubility in 0.1N hydrochloric acid compared with the hydrochloric acid salt” value in series [1] is recorded as “more readily soluble”.

Take `CC(=O)Oc1cc2c(s1)CCN(C(C(=O)C1CC1)c1ccccc1F)C2` (centres unmarked) [prasugrel HCl]: the Solubility stood at 7.8 g/100 ml in series [2] (pH 1), 0.032 g/100 ml in series [2] (pH 4.5) and 0.007 g/100 ml in series [2] (pH 6.8). Further, the “Platelet aggregation inhibitory effect compared with the base” value with platelet aggregation is reported as “almost twice higher”.

For `CC(=O)Oc1cc2c(s1)CCN(C(C(=O)C1CC1)c1ccccc1F)C2` (centres unmarked) [prasugrel base, 5-/2-cyclopropyl-1-(2-fluoro-phenyl)-2-oxoethyl/-4,5,6,7-tetrahydrothieno/3.2-c/-pyridine-2-yl-acetate], the “Related substances by HPLC: Any identified impurity, each” value in series [3] (25 ± 2° C. 60 ± 5% RH, 1 month) was 0.05%; in series [3] (setting [4]), 0.07%; in series [3] (setting [5]) it was less than 0.05%; in series [3] (setting [6]) it was less than 0.05%; in series [3] (25 ± 2° C. 60 ± 5% RH, Initial), less than 0.05%; in series [3] (40 ± 2° C. 75 ± 5% RH, 1 month), less than 0.05%. Moreover, the “Related substances by HPLC: Any identified impurity, each” value in series [3] (setting [7]) is on record as 0.05%; in series [3] (setting [8]), less than 0.05%; in series [3] (setting [9]), less than 0.05%; in series [3] (40 ± 2° C. 75 ± 5% RH, Initial) it was less than 0.05%. Also, the “Related substances by HPLC: Any unidentified impurity” value in series [3] (25 ± 2° C. 60 ± 5% RH, 1 month) was less than 0.05%; in series [3] (setting [4]), less than 0.05%; in series [3] (setting [5]), less than 0.05%; in series [3] (setting [6]), less than 0.05%; in series [3] (25 ± 2° C. 60 ± 5% RH, Initial) it was less than 0.05%; in series [3] (40 ± 2° C. 75 ± 5% RH, 1 month) it was less than 0.05%. Besides, the “Related substances by HPLC: Any unidentified impurity” value in series [3] (setting [7]) is given as less than 0.05%; in series [3] (setting [8]) it was less than 0.05%; in series [3] (setting [9]) it was less than 0.05%; in series [3] (40 ± 2° C. 75 ± 5% RH, Initial), less than 0.05%. Besides, the “Related substances by HPLC: Dezacetyl impurity” value in series [3] (25 ± 2° C. 60 ± 5% RH, 1 month) is reported as less than 0.05%; in series [3] (setting [4]), less than 0.05%; in series [3] (setting [5]) it was less than 0.05%; in series [3] (setting [6]), less than 0.05%; in series [3] (25 ± 2° C. 60 ± 5% RH, Initial) it was less than 0.05%; in series [3] (40 ± 2° C. 75 ± 5% RH, 1 month), less than 0.05%. The “Related substances by HPLC: Dezacetyl impurity” value in series [3] (setting [7]) was less than 0.05%; in series [3] (setting [8]), less than 0.05%; in series [3] (setting [9]), less than 0.05%; in series [3] (40 ± 2° C. 75 ± 5% RH, Initial), less than 0.05%. Also, the “Related substances by HPLC: Sum of impurities” value in series [3] (25 ± 2° C. 60 ± 5% RH, 1 month) was 0.05%; in series [3] (setting [4]) it was 0.07%; in series [3] (setting [5]), less than 0.05%; in series [3] (setting [6]) it was less than 0.05%; in series [3] (25 ± 2° C. 60 ± 5% RH, Initial), less than 0.05%; in series [3] (40 ± 2° C. 75 ± 5% RH, 1 month), less than 0.05%. Also, the “Related substances by HPLC: Sum of impurities” value in series [3] (setting [7]) is recorded as 0.05%; in series [3] (setting [8]), less than 0.05%; in series [3] (setting [9]), less than 0.05%; in series [3] (40 ± 2° C. 75 ± 5% RH, Initial) it was less than 0.05%. Further, the “Stability of the base per se on storage” value in series [3] (storage period of 6 months) is given as “remains stable”. Further, the Solubility in series [2] (Water) is given as 0.0009 g/100 ml; in series [2] (pH 1), 2.8 g/100 ml; in series [2] (pH 4.5), 0.0035 g/100 ml; in series [2] (pH 6.8) it was 0.001 g/100 ml.

The values above are taken from patent US8603537B2, “Prasugrel containing quickly released stable oral pharmaceutical compositions” (Egis Pharmaceuticals PLC, priority 2012, dated 2013).
